The values that follow come from patent US4002690A (priority 1974, dated 1977).

Experiment [1] has as its system Newcastle disease virus (NDV). In words: microbe, parasite or virus in culture. The class given is cell-based, Newcastle disease virus (host: chick embryo). As to conditions: for inhibition at 39 µg/mL / inhibition at 78 µg/mL / inhibition at 156 µg/mL: avian paramyxovirus 1, in Gallus gallus, 48 h, read-out: % Inhibition of NDV Multiplications.
Experiment [2] in a line: Antiviral activity in vivo (statement only). The following applies: no test details given.

Counter-ions that a name gives are not always drawn.

The inhibition is the share of the control response that was lost under treatment.

`NC12CC3CC(CC(C3)C1)C2` [Amantadine.HCl, reference compound]: in experiment [1], the inhibition at 39 µg/mL worked out at 0%, the inhibition at 78 µg/mL worked out at 0% and the inhibition at 156 µg/mL worked out at 0%.

With `OCC12CCCC3CC(CCC31)C2` (stereo not drawn) [II], in experiment [2], the “antiviral activity in vivo” value was “potent antiviral activity in vivo”. In addition, the “antiviral activity compared with Amantadine hydrochloride” value in experiment [1] (NDV, in vitro, chick embryo monolayer tissue culture) is “extremely superior to that of Amantadine hydrochloride”. Also, in experiment [1], the inhibition at 39 µg/mL was found to be 0%, the inhibition at 78 µg/mL was 91.2% and the inhibition at 156 µg/mL was 99.8%. The “virus replication in the tissue culture” value in experiment [1] (containing above 39 μg/ml of carbinol (II)) is listed as “almost completely inhibited”.
